Our source for the IC50 values is ChEMBL document CHEMBL3580558, “Salternamides A-D from a Halophilic Streptomyces sp. Actinobacterium” (J Nat Prod, 2015).

pIC50: −log10 of the molar value.

The subject of one test is A549. In words: Antiproliferative activity against human A549 cells after 3 days by sulforhodamine B assay. The settings on record: A549, 72 h. It is filed as functional, cell-based. (In general: The SRB assay estimates cell density from bound dye.)
The subject of the next test is HCT-116. In words: Antiproliferative activity against human HCT116 cells after 3 days by sulforhodamine B assay. It is filed as functional, cell-based. Conditions: HCT-116, 72 h; call rule not given here.
Test [1] is described as follows: Antiproliferative activity against human SNU638 cells after 3 days by sulforhodamine B assay. It is filed as functional, cell-based. Conditions: SNU-638, 72 h.
Another test has as its system K562. Put plainly: Antiproliferative activity against human K562 cells after 3 days by sulforhodamine B assay. It is filed as functional, cell-based. The settings on record: K562, 72 h.
Test [2] is described as follows: Antiproliferative activity against human SKHEP1 cells after 3 days by sulforhodamine B assay. It is filed as functional, cell-based. Conditions: SK-HEP1, 72 h.
The next test deals with MDA-MB-231. In words: Antiproliferative activity against human MDA-MB-231 cells after 3 days by sulforhodamine B assay. It is filed as functional, cell-based. The settings on record: MDA-MB-231, 72 h.
A short description of test [3]: Inhibition of porcine cerebral cortex Na+/K+ ATPase incubated at 37 degC for 30 mins using 3-O-methylfluorescein phosphate and […] by fluorometry. The class given is tissue-based, Sus scrofa. The settings on record: for pIC50: read-out: IC50.

For the molecule `CC(C)=C[C@H](C)C[C@H](C)/C=C/C(=O)NC1=C[C@](O)(CCCCC(=O)O)C=C(Cl)C1=O`, the pIC50 is 4.44 with A549; 6.02 with HCT-116; 6.02 in test [1]; 5.05 with K562; 5.57 in test [2]; 5.05 in the test with MDA-MB-231. Moreover, the pIC50 in test [3] is 4.21.
For `C[C@@H]1O[C@@H](O[C@H]2C[C@@H](O)[C@]3(CO)[C@H]4[C@H](O)C[C@]5(C)[C@@H](C6=CC(=O)OC6)CC[C@]5(O)[C@@H]4CC[C@]3(O)C2)[C@H](O)[C@H](O)[C@H]1O` [OUABAIN], the pIC50 in test [3] was 5.42.
Consider `CC(C)=C[C@H](C)C[C@H](C)/C=C(\C)C(=O)NC1=C[C@](O)(CCCCC(=O)O)[C@@H](O)CC1=O`, for which the pIC50 with A549 was below 4.00; in the test on HCT-116 it was 4.47; in test [1] it was 4.82; in the test with K562, 4.23; in test [2] it was 4.49; with MDA-MB-231, 4.04. Moreover, the pIC50 in test [3] is 4.52.
For the molecule `CC(C)=C[C@H](C)C[C@H](C)/C=C/C(=O)NC1=C[C@](O)(CCCCC(=O)O)C=CC1=O`, the pIC50 is 4.09 in the test on A549; 4.26 with HCT-116; 4.57 in test [1]; below 4.00 in the test on K562; 4.25 in test [2]; 4.57 with MDA-MB-231. The IC50 result in test [3] is on record as “Not Active”.
Take `CC(C)=C[C@H](C)C[C@H](C)/C=C/C(=O)NC1=C[C@](O)(CCCCC(=O)O)[C@@H](O)CC1=O`: the pIC50 (in the test with A549; with HCT-116; in test [1]; with K562; in test [2]; in the test on MDA-MB-231) was below 4.00 each time. Further, the pIC50 in test [3] is below 4.00.
With `COc1cc([C@@H]2c3cc4c(cc3[C@@H](O[C@@H]3O[C@@H]5CO[C@@H](C)O[C@H]5[C@H](O)[C@H]3O)[C@H]3COC(=O)[C@H]23)OCO4)cc(OC)c1O` [ETOPOSIDE], the pIC50 with A549 is 6.10; in test [1] it was 6.30; in the test with K562, 5.51; in test [2] it was 5.96; in the test with MDA-MB-231, 4.96.

The term pIC50 denotes the negative decadic logarithm of the IC50, by convention in mol/L.
